Laboratory results as given in PubChem BioAssay AID248 (DTP/NCI, 2004).
Several values for one entry are separate records, joined by “and”; a condition that tells them apart may be missing. Identical values can stand only once. Toxic doses and inconclusive results are not listed. Cut-off read from the data, not from the text of the source: active = T/C of 150% or more; inactive = T/C below 125%. Square brackets hold non-standard residues; d marks the D form. Peptide text beside a SMILES is read from it. * marks the point of attachment. ξ: configuration not given here. Cbz = O=C(OCc1ccccc1)*; ξV = CC(C)C(N)C(=O)O

Test system: L1210 leukemia ip in BDF1 mice, survival T/C
Test: NCI In Vivo Anticancer Drug Screen. Data for tumor model L1210 Leukemia (intraperitoneal) in B6D2F1 (BDF1) mice
Settings: endpoint: mean survival time, higher = longer survival
Method in brief: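 In this screen, tumor-bearing mice given compound are compared to those given vehicle, and their survival values are reported as a treated-to-control quotient.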

[1] = dose: 100.0 mg/kg/injection, schedule: Q01DX009 (ip), vehicle: saline with Tween-80
[2] = dose: 100.0 mg/kg/injection, schedule: Q04DX003 (ip), vehicle: saline with Tween-80
[3] = dose: 200.0 mg/kg/injection, schedule: Q01DX009 (ip), vehicle: saline with Tween-80
[4] = dose: 200.0 mg/kg/injection, schedule: Q04DX003 (ip), vehicle: saline with Tween-80
[5] = dose: 400.0 mg/kg/injection, schedule: Q04DX003 (ip), vehicle: saline with Tween-80
[6] = dose: 100.0 mg/kg/injection, schedule: Q04DX002 (ip), vehicle: Klucel (hydroxypropylcellulose) (HPC)
[7] = dose: 200.0 mg/kg/injection, schedule: Q04DX002 (ip), vehicle: Klucel (hydroxypropylcellulose) (HPC)
[8] = dose: 100.0 mg/kg/injection, schedule: Q01DX001 (ip), vehicle: carboxymethylcellulose (CMC)
[9] = dose: 200.0 mg/kg/injection, schedule: Q01DX001 (ip), vehicle: carboxymethylcellulose (CMC)
[10] = dose: 400.0 mg/kg/injection, schedule: Q01DX001 (ip), vehicle: carboxymethylcellulose (CMC)
[11] = dose: 100.0 mg/kg/injection, schedule: Q01DX001 (ip), vehicle: Klucel (hydroxypropylcellulose) (HPC)
[12] = dose: 100.0 mg/kg/injection, schedule: Q01DX009 (ip), vehicle: Klucel (hydroxypropylcellulose) (HPC)
[13] = dose: 100.0 mg/kg/injection, schedule: Q04DX003 (ip), vehicle: Klucel (hydroxypropylcellulose) (HPC)
[14] = dose: 200.0 mg/kg/injection, schedule: Q01DX001 (ip), vehicle: Klucel (hydroxypropylcellulose) (HPC)
[15] = dose: 200.0 mg/kg/injection, schedule: Q01DX009 (ip), vehicle: Klucel (hydroxypropylcellulose) (HPC)
[16] = dose: 200.0 mg/kg/injection, schedule: Q04DX003 (ip), vehicle: Klucel (hydroxypropylcellulose) (HPC)
[17] = dose: 100.0 mg/kg/injection, schedule: Q01DX001 (ip), vehicle: saline
[18] = dose: 200.0 mg/kg/injection, schedule: Q01DX001 (ip), vehicle: saline
[19] = dose: 400.0 mg/kg/injection, schedule: Q01DX001 (ip), vehicle: saline
[20] = dose: 25.0 mg/kg/injection, schedule: Q04DX003 (ip), vehicle: Klucel (hydroxypropylcellulose) (HPC)
[21] = dose: 50.0 mg/kg/injection, schedule: Q04DX003 (ip), vehicle: Klucel (hydroxypropylcellulose) (HPC)
[22] = dose: 400.0 mg/kg/injection, schedule: Q04DX003 (ip), vehicle: Klucel (hydroxypropylcellulose) (HPC)
[23] = dose: 25.0 mg/kg/injection, schedule: Q04DX002 (ip), vehicle: Klucel (hydroxypropylcellulose) (HPC)
[24] = dose: 50.0 mg/kg/injection, schedule: Q04DX002 (ip), vehicle: Klucel (hydroxypropylcellulose) (HPC)
[25] = dose: 400.0 mg/kg/injection, schedule: Q01DX009 (ip), vehicle: Klucel (hydroxypropylcellulose) (HPC)
[26] = dose: 400.0 mg/kg/injection, schedule: Q01DX001 (ip), vehicle: Klucel (hydroxypropylcellulose) (HPC)

Measured: T/C

Cc1cc(Cl)c2ccccc2c1N
inactive: [1] 106 % of control | [2] 104 % of control | [3] 96 % of control | [4] 102 % of control | dose: 400.0 mg/kg/injection, schedule: Q01DX009 (ip), vehicle: saline with Tween-80 98 % of control | [5] 100 % of control

CC(=O)Nc1cc(Cl)c([N+](=O)[O-])cc1C
inactive: [6] 110 % of control | [7] 113 % of control | dose: 400.0 mg/kg/injection, schedule: Q04DX002 (ip), vehicle: Klucel (hydroxypropylcellulose) (HPC) 103 % of control

O=[N+]([O-])c1ccc(C2OCCO2)cc1
inactive: [8] 94 % of control | [9] 91 % of control | [10] 96 % of control

CC(C)NCc1ccccc1
inactive: dose: 100.0 mg/kg/injection, schedule: Q04DX002 (ip), vehicle: saline with Tween-80 95 % of control | dose: 200.0 mg/kg/injection, schedule: Q04DX002 (ip), vehicle: saline with Tween-80 98 % of control

N#CC(CC(=O)O)=C(c1ccccc1)c1ccccc1
inactive: [11] 106 % of control | [12] 97 % of control and 104 % of control | [6] 96 % of control and 98 % of control | [13] 97 % of control | [14] 110 % of control | [15] 95 % of control and 101 % of control | [7] 95 % of control and 101 % of control | [16] 101 % of control

N#CCC1C(=O)Nc2ccccc21 (configuration not stated)
inactive: [17] 101 % of control | [18] 98 % of control | [19] 101 % of control

CCSCc1cnc(N)nc1-c1ccccc1
inactive: [2] 97 % of control | [4] 94 % of control | [5] 86 % of control

Cc1ccc(S)c(C)c1
inactive: [13] 93 % of control | [16] 95 % of control

CCC[CH2][Ge]([Cl])([Cl])[CH2]CCC
inactive: dose: 25.0 mg/kg/injection, schedule: Q01DX009 (ip), vehicle: Klucel (hydroxypropylcellulose) (HPC) 89 % of control | [20] 93 % of control | dose: 50.0 mg/kg/injection, schedule: Q01DX009 (ip), vehicle: Klucel (hydroxypropylcellulose) (HPC) 94 % of control | [21] 96 % of control | [13] 106 % of control

Cc1cc(N(CCCl)CCCl)ccc1C=Nc1cc(Cl)ccc1-n1ccnc1C
inactive: [21] 98 % of control | [13] 98 % of control | [16] 101 % of control | [22] 90 % of control

N#Cc1ccc(-c2ccccc2)cc1
inactive: dose: 50.0 mg/kg/injection, schedule: Q04DX002 (ip), vehicle: other 103 % of control | dose: 100.0 mg/kg/injection, schedule: Q04DX002 (ip), vehicle: other 95 % of control | dose: 200.0 mg/kg/injection, schedule: Q04DX002 (ip), vehicle: other 117 % of control

CC(C)(C)NCC1C(c2ccccc2)C1c1ccccc1 (configuration not stated)
inactive: [23] 92 % of control | [24] 88 % of control

O=C(O)C1(Br)CC12c1ccccc1-c1ccccc12 (configuration not stated)
inactive: dose: 100.0 mg/kg/injection, schedule: Q01DX001 (ip), vehicle: acetone 92 % of control | dose: 200.0 mg/kg/injection, schedule: Q01DX001 (ip), vehicle: acetone 95 % of control

CCCCCCCCP(=O)(CCCCCC)CCCCCC
inactive: dose: 100.0 mg/kg/injection, schedule: Q01DX001 (ip), vehicle: saline with Tween-80 97 % of control | dose: 200.0 mg/kg/injection, schedule: Q01DX001 (ip), vehicle: saline with Tween-80 101 % of control | dose: 400.0 mg/kg/injection, schedule: Q01DX001 (ip), vehicle: saline with Tween-80 111 % of control

COc1cccc(NC(=O)Nc2ccccc2OC)c1
inactive: [12] 106 % of control | [13] 100 % of control | [15] 108 % of control | [16] 97 % of control | [25] 103 % of control | [22] 100 % of control

CSC1SC(C)CC(C)S1 (configuration not stated)
inactive: dose: 12.5 mg/kg/injection, schedule: Q04DX002 (ip), vehicle: Klucel (hydroxypropylcellulose) (HPC) 95 % of control | [23] 92 % of control | [24] 98 % of control

Cc1ccc(NC(=O)Nc2ccccc2Cl)c(C)c1
inactive: [8] 93 % of control | [9] 101 % of control | [10] 98 % of control

O=C1C(=O)c2ccccc2C(O)=C1c1ccccc1
inactive: dose: 50.0 mg/kg/injection, schedule: Q01DX001 (ip), vehicle: carboxymethylcellulose (CMC) 114 % of control

O=Cc1ccc(OC(=O)Nc2ccccc2)cc1
inactive: [1] 92 % of control | [2] 105 % of control | [3] 87 % of control | [4] 94 % of control | [5] 93 % of control

Cc1ccc([N+](=O)[O-])cc1NC(=O)Nc1ccc(S(N)(=O)=O)cc1
inactive: [12] 97 % of control | [13] 96 % of control | [15] 98 % of control | [16] 92 % of control | [25] 103 % of control | [22] 91 % of control

CC(=O)Oc1cc2c[n+](C)c3c4cc(OC(C)=O)c(OC(C)=O)cc4ccc3c2cc1OC(C)=O
inactive: dose: 20.0 mg/kg/injection, schedule: Q01DX009 (ip), vehicle: saline 101 % of control | dose: 40.0 mg/kg/injection, schedule: Q01DX009 (ip), vehicle: saline 109 % of control | dose: 80.0 mg/kg/injection, schedule: Q01DX009 (ip), vehicle: saline 104 % of control | dose: 120.0 mg/kg/injection, schedule: Q01DX009 (ip), vehicle: saline 91 % of control

CC12CCC3c4ccc(O)c(N)c4CCC3C1CCC2=O (configuration not stated)
inactive: [11] 102 % of control | [14] 102 % of control | [26] 101 % of control

Cc1ccc2c(C)c3ccc4ccccc4c3c[n+]2c1
inactive: dose: 3.13 mg/kg/injection, schedule: Q01DX009 (ip), vehicle: saline with Tween-80 98 % of control | dose: 6.2 mg/kg/injection, schedule: Q04DX003 (ip), vehicle: Klucel (hydroxypropylcellulose) (HPC) 111 % of control | dose: 6.25 mg/kg/injection, schedule: Q01DX009 (ip), vehicle: saline with Tween-80 107 % of control | dose: 12.5 mg/kg/injection, schedule: Q01DX009 (ip), vehicle: saline with Tween-80 107 % of control and 113 % of control | dose: 12.5 mg/kg/injection, schedule: Q04DX003 (ip), vehicle: Klucel (hydroxypropylcellulose) (HPC) 104 % of control | [20] 111 % of control | [21] 117 % of control | [17] 123 % of control | [18] 104 % of control | [19] 104 % of control

COC(=O)C(NC(=O)CNC(=O)CNC(=O)OCc1ccccc1)C(C)C (stereo not drawn) (Cbz-Gly-Gly-[ξV]-OMe)
inactive: [13] 96 % of control | [16] 99 % of control | [22] 92 % of control

BrC1C=CC=CN1C/C=C/CN1C=CC=CC1Br (configuration not stated)
inactive: dose: 75.0 mg/kg/injection, schedule: Q01DX001 (ip), vehicle: saline 96 % of control | dose: 150.0 mg/kg/injection, schedule: Q01DX001 (ip), vehicle: saline 97 % of control

CC(=O)Nc1ccc(/C=C/c2ccc3ccccc3[n+]2C)cc1
inactive: dose: 25.0 mg/kg/injection, schedule: Q01DX009 (ip), vehicle: saline with Tween-80 97 % of control | dose: 25.0 mg/kg/injection, schedule: Q04DX003 (ip), vehicle: saline with Tween-80 101 % of control | dose: 50.0 mg/kg/injection, schedule: Q01DX009 (ip), vehicle: saline with Tween-80 106 % of control | dose: 50.0 mg/kg/injection, schedule: Q04DX003 (ip), vehicle: saline with Tween-80 98 % of control | [2] 94 % of control

N#CC12C(=N)CCC1C1C=CC2C1 (configuration not stated)
inactive: dose: 6.25 mg/kg/injection, schedule: Q01DX009 (ip), vehicle: Klucel (hydroxypropylcellulose) (HPC) 100 % of control | dose: 12.5 mg/kg/injection, schedule: Q01DX009 (ip), vehicle: Klucel (hydroxypropylcellulose) (HPC) 101 % of control | [13] 89 % of control | [16] 93 % of control

O=C(COc1ccc(Cl)cc1C(=O)O)Nc1cccc(NC(=O)Nc2ccc(S(=O)(=O)F)cc2)c1
inactive: [11] 91 % of control | [14] 101 % of control | [26] 93 % of control
